Laboratory results as given in patent US8242084B2, “Dimerized peptide” (Chugai Seiyaku Kabushiki Kaisha, priority 2003, dated 2012).
Bridge positions count the residues as written; N and C are the ends. I, II: the chains in the order shown.

Test system: EL4-A2402/K^b cells
Assay: Induction of CTLs with peptide dimer: HLA-A24 transgenic mice immunised, splenocytes tested by 51Cr release assay
Format: in vivo, HLA-A24 transgenic mouse
Settings: for CTL-inducing activity (induction of peptide-specific CTLs): HLA-A24 transgenic mouse, s.c. injection in the base of the tail, FIG. 1
Method: The CTL-inducing activity of the peptide dimer prepared in Example 1 was evaluated using HLA-A24 transgenic mice (Int. J. Cancer: 100, 565, 2002). The peptide dimer was dissolved in dimethyl sulfoxide (DMSO) to obtain a 40 mg/ml peptide solution. The peptide solution (35 μl) was then added to 10 mM phosphate buffer (pH 7.5) (581 μl) to obtain a peptide suspension. The resultant peptide suspension (550 μl) and Montanide ISA51 (Seppic) (700 μl) were mixed using a connected glass syringe to prepare an emulsion as an administration solution.
The administration solution (200 μl) was injected into an HLA-A24 transgenic mouse subcutaneously in the base of the tail. Three mice were used. Seven days after the injection, the spleen was removed and splenocytes were prepared. A portion of the splenocytes was pulsed with the peptide dimer (100 μg/ml) for 1 hour. Splenocytes not pulsed with the peptide were seeded into a 24-well plate at 7×10^6 cells/well and thereto were added the above-mentioned splenocytes pulsed with the peptide (1×10^6 cells/well), and the plate was incubated. The incubation was conducted in RPMI1640 medium supplemented with 10% FCS, 10 mM HEPES, 20 mM L-glutamine, 1 mM sodium pyruvate, 1 mM MEM nonessential amino acids, 1% MEM vitamin and 55 μM 2-mercaptoethanol for 5 days.
The cultured splenocytes were examined for the cytotoxic activity specific for the peptide used in the administration by ^51Cr release assay (J. Immunol.: 159, 4753, 1997). EL4-A2402/K^b cells obtained by transforming EL-4 cells (ATCC No. TIB-39) in such a manner that a chimera MHC class I molecule of HLA-A24 and H2K^b (Int. J. Cancer: 100, 565, […]) are expressed stably were used as the target cells. The target cells were labeled with ^51Cr (3.7 MBq/10^6 cells) and pulsed with the peptide at 100 μg/ml for an hour. For control, target cells not pulsed with the peptide were labeled with ^51Cr for 2 hours. Those labeled target cells and the previously prepared splenocytes were mixed at a ratio of 1:120, cultured for 4 hours and the CTL activity was evaluated on the basis of the percent of damaged target cells.

Q: Which “CTL-inducing activity (induction of peptide-specific CTLs)” value does the source give for “Example 1: Dimer of two H-Cys-Tyr-Thr-Trp-Asn-Gln-Met-Asn-Leu-OH (SEQ ID NO:44) monomers, made by air oxidation, bound through a disulfide bond (chain 1 H-CYTWNQMNL-OH; chain 2 H-CYTWNQMNL-OH; disulfide I:1-II:1; SMILES CSCC[C@H](NC(=O)[C@H](CCC(N)=O)NC(=O)[C@H](CC(N)=O)NC(=O)[C@H](Cc1c[nH]c2ccccc12)NC(=O)[C@@H](NC(=O)[C@H](Cc1ccc(O)cc1)NC(=O)[C@@H](N)CSSC[C@H](N)C(=O)N[C@@H](Cc1ccc(O)cc1)C(=O)N[C@H](C(=O)N[C@@H](Cc1c[nH]c2ccccc12)C(=O)N[C@@H](CC(N)=O)C(=O)N[C@@H](CCC(N)=O)C(=O)N[C@@H](CCSC)C(=O)N[C@@H](CC(N)=O)C(=O)N[C@@H](CC(C)C)C(=O)O)[C@@H](C)O)[C@@H](C)O)C(=O)N[C@@H](CC(N)=O)C(=O)N[C@@H](CC(C)C)C(=O)O)” here?
A: CTLs specific for the peptide were induced

Q: What about the “CTL-inducing activity (induction of peptide-specific CTLs)” value (listed as peptide dimer (SEQ ID NO: 44)) of the same substance?
A: induces CTLs

Q: What about the “cytotoxic activity of splenocytes on target cells not pulsed with the peptide (control)” value (same splenocytes, target cells not pulsed with the peptide, ratio 1:120, 4 hours) of the same substance?
A: only weak cytotoxicity

Q: And the “cytotoxic activity of splenocytes on target cells pulsed with the peptide (percent of damaged target cells)” value (splenocytes from mice injected s.c. with emulsion (Montanide ISA51), 7 days, target cells pulsed with peptide 100 μg/ml, target:splenocyte ratio 1:120, 4 hours)?
A: injured strongly
